Results: ChEMBL document CHEMBL6153168, “Novel Tricyclic KRAS Inhibitors for the Treatment of Cancer” (ACS Med Chem Lett, 2025)

Tests used:
[1] = system: NCI-H358; experiment: Anticancer activity against human NCI-H358 cells harboring KRAS G12C mutant assessed as inhibition of cell viability incubated for 72 hrs by cell counting kit 8 method; assay type: functional, cell-based; settings: NCI-H358, 72 h
[2] = system: AGS; experiment: Anticancer activity against human AGS cells harboring KRAS G12D mutant assessed as inhibition of cell viability incubated for 72 hrs by cell counting kit 8 method; assay type: functional, cell-based
[3] = system: SW-620; experiment: Anticancer activity against human SW620 cells harboring KRAS G12V mutant assessed as inhibition of cell viability incubated for 72 hrs by cell counting kit 8 method; assay type: functional, cell-based; settings: SW-620, 72 h
[4] = Disruption of 6his-tagged KRAS G12C mutant/BRAF RBD complex (unknown origin) incubated for 3 hrs in the presence of CYPA by TR-FRET assay; design: species or system Homo sapiens
[5] = Disruption of 6-his tagged KRAS G12D mutant/BRAF RBD complex (unknown origin) incubated for 3 hrs in the presence of CYPA by TR-FRET assay; design: species or system Homo sapiens
[6] = Disruption of 6-his tagged KRAS G12V mutant/BRAF RBD complex (unknown origin) incubated for 3 hrs in the presence of CYPA by TR-FRET assay; design: species or system Homo sapiens
[7] = Inhibition of ERK phosphorylation in human NCI-H358 cells harboring KRAS G12C mutant incubated for 4 hrs by absorbance based analysis; assay type: cell-based; settings: NCI-H358, 4 h
[8] = Inhibition of ERK phosphorylation in human AGS cells harboring KRAS G12D mutant incubated for 4 hrs by absorbance based analysis; assay type: cell-based
[9] = Inhibition of ERK phosphorylation in human SW620 cells harboring KRAS G12V mutant incubated for 4 hrs by absorbance based analysis; assay type: cell-based; settings: SW-620, 4 h

SMILES	IC50 [1] [µM]	IC50 [2] [µM]	IC50 [3] [µM]	IC50 [4] [µM]	IC50 [5] [µM]	IC50 [6] [µM]	IC50 [7] [µM]	IC50 [8] [µM]	IC50 [9] [µM]
CO[C@@H](C)c1ncccc1-c1c2c3cc(cc4c3n1CCC4)-c1cc(O)cc(c1)C[C@H](NC(=O)[C@H](C(C)C)N(C)C(=O)C1(F)CCN(C(=O)[C@H](F)Cl)CC1)C(=O)N1CCC[C@H](N1)C(=O)OCC(C)(C)C2	–	–	–	0.006	1.88	0.164	–	–	–
CO[C@@H](C)c1ncc(N2CCN(C)CC2)cc1-c1c2c3cc(cc4c3n1CCC4)-c1csc(n1)C[C@H](NC(=O)[C@H](C(C)C)N(C)C(=O)C1(F)CCN(C(=O)[C@H](F)Cl)CC1)C(=O)N1CCC[C@H](N1)C(=O)OCC(C)(C)C2	0.002	0.292	0.107	–	–	–	–	–	–
CO[C@@H](C)c1ncc(N2CCN(C)CC2)cc1-c1c2c3cc(cc4c3n1CCC4)-c1csc(n1)C[C@H](NC(=O)[C@H](C(C)C)N1CCC3(CN(C(=O)[C@H](F)Cl)C3)C1=O)C(=O)N1CCC[C@H](N1)C(=O)OCC(C)(C)C2	–	–	–	–	–	–	0.019	0.062	0.038
CO[C@@H](C)c1ncccc1-c1c2c3cc(cc4c3n1CCO4)-c1cc(O)cc(c1)C[C@H](NC(=O)[C@H](C(C)C)N(C)C(=O)C1(F)CCN(C(=O)[C@H](F)Cl)CC1)C(=O)N1CCC[C@H](N1)C(=O)OCC(C)(C)C2	–	–	–	0.016	3.91	0.445	–	–	–

Further lines, results first:

IC50 [1] [µM]	IC50 [2] [µM]	IC50 [3] [µM]	IC50 [4] [µM]	IC50 [5] [µM]	IC50 [6] [µM]	IC50 [7] [µM]	IC50 [8] [µM]	IC50 [9] [µM]	SMILES
0.008	0.016	0.026	–	–	–	–	–	–	CO[C@@H](C)c1ncc(N2CCOCC2)cc1-c1c2c3cc(cc4c3n1CC(F)(F)C4)-c1csc(n1)C[C@H](NC(=O)[C@H](C(C)C)N(C)C(=O)C1(F)CCN(C(=O)[C@H](F)Cl)CC1)C(=O)N1CCC[C@H](N1)C(=O)OCC(C)(C)C2
–	–	–	–	–	–	0.001	> 10	0.023	CO[C@@H](C)c1ncc(N2CCOCC2)cc1-c1c2c3cc(cc4c3n1CCC4)-c1csc(n1)C[C@H](NC(=O)[C@H](C(C)C)N(C)C(=O)C1(F)CCN(C(=O)[C@H](F)Cl)CC1)C(=O)N1CCC[C@H](N1)C(=O)OCC(C)(C)C2
